Experimental data taken from US20080317752A1, “Inhibition of Tumorigenesis by Inhibition of a6b4 Integrin” (Sloan-Kettering Institute for Cancer Research, priority 2005, published 2008).

What was measured:
[1] = tested on: mammary tumors of MMTV-Neu (YD) mice; assay: Treatment of tumor-bearing MMTV-Neu(YD) mice, tumor volume by caliper; assay type: in vivo; conditions: for effect on tumor volume: Iressa 100 mg/Kg/day, day 24; for treated tumors that regress: Iressa 100 mg/Kg/day gastric gavage 24 days
Neu-b4-WT cells [2] = assay: Matrigel invasion assay in response to FBS; conditions: Iressa 10 μM
[3] = tested on: mammary tumors of Neu(YD) mice; assay: Tumor apoptosis in treated mice; assay type: in vivo
ERK and Akt [4] = assay: Activation of ERK and Akt in Neu-b4 cells in vitro; assay type: cell-based, mouse; conditions: Neu-b4-1355T versus Neu-b4-WT cells
activated ErbB2 = assay: Inhibition of activated ErbB2 (IC50); assay type: cell-based; conditions: Neu-b4-WT versus Neu-b4-1355T cells in vitro
Sequence of activated ErbB2 (P04626 23-1255): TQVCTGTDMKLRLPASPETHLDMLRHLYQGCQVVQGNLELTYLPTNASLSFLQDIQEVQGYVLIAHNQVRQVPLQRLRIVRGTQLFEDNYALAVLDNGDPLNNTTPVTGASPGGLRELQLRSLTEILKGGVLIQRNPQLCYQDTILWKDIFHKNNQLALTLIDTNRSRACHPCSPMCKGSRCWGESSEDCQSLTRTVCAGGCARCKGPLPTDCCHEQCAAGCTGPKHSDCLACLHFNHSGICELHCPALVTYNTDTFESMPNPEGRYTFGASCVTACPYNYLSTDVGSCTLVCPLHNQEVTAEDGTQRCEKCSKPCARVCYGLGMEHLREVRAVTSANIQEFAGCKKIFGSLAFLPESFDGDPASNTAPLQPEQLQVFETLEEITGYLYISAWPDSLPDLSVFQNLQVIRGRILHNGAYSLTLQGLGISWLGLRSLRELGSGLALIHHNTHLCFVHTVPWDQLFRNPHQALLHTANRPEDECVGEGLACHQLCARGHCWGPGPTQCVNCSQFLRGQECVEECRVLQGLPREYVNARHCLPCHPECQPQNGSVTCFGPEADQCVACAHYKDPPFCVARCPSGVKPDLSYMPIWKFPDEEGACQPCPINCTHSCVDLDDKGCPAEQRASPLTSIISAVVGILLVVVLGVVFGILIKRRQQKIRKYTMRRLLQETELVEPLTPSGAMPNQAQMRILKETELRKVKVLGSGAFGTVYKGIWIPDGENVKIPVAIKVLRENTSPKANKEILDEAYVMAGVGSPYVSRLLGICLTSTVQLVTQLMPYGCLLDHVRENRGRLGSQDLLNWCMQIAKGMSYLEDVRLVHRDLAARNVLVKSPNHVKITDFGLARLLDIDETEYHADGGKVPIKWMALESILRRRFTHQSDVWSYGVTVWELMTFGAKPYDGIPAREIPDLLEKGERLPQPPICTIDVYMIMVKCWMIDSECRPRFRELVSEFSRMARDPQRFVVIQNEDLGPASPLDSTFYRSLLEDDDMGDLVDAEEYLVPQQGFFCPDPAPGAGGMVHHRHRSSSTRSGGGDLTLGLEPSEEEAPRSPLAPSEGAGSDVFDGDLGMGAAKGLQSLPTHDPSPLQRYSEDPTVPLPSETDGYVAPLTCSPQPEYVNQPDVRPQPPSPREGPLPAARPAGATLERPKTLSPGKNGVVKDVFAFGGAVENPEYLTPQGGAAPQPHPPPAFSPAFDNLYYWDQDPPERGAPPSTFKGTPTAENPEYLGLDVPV

ErbB2 [5] = assay: Phosphorylation of ErbB2 (immunoprecipitation / immunoblotting); assay type: cell-based; conditions: for phosphorylation of the P-loop of ErbB2: immunoblotting of total lysates, single agent
Protocol: (§1) Biochemical studies were performed to study the molecular mechanism by which b4 signaling promotes mammary tumorigenesis.
Since SFKs can phosphorylate Y845 in the P-loop of the EGF-R, we examined the effect of SFK inhibition on phosphorylation of the corresponding tyrosine in the P-loop of ErbB2.

[6] = tested on: tumor cells expressing wild-type b4; assay: Assembly of adherens and tight junctions in primary ErbB2-transformed tumor cells; assay type: cell-based, mouse
From the text: Tight junctions have emerged as key regulators of mammalian epithelial polarity and adhesion. Prompted by the observation that deletion of the b4 signaling domain increases the organization of tight junctions in mammary tumors, we used an ex vivo approach to examine the effect of b4 signaling on epithelial adhesion and polarity.

ErbB2 [7] = assay: Activation of ErbB2 in tumors of treated mice; conditions: Neu(YD)/b4-WT and Neu(YD)/b4-1355T tumors
SFKs = assay: Activation of SFKs; assay type: cell-based
Protocol: as §1

Neu-b4-WT cells [8] = assay: Assembly of adherens and tight junctions in isogenic Neu-b4-WT cells; conditions: Neu-b4-WT cells in culture
From the text: To examine if the b4 integrin disrupts epithelial adhesion by a direct signaling mechanism, we generated isogenic Neu-transformed mammary tumor cells expressing either wildtype or mutant b4 by using an RNAi-reconstitution strategy.

ERK and Akt [9] = assay: Activation of ERK and Akt in tumor lysates of treated mice; assay type: in vivo; conditions: Neu(YD)/b4-1355T versus Neu(YD)/b4-WT tumors
c-Jun and STAT3 = assay: Activation of c-Jun and STAT3 in tumor lysates of treated mice; assay type: in vivo; conditions: both types of tumors
c-Jun = assay: Phosphorylation of c-Jun in Neu-b4-WT cells; assay type: cell-based, mouse
STAT3 = assay: Phosphorylation of STAT3 in Neu-b4-WT cells; assay type: cell-based, mouse
From the text: Prior studies have linked SFK-mediated phosphorylation of the P-loop of ErbB receptors to JAK-STAT signaling. Since deletion of the b4 signaling domain reduces SFK activation and association with ErbB2 and decreases phosphorylation of the P-loop of ErbB-2, we examined the effect of this deletion on STAT3 activation. Phosphorylation at Y705 is essential for dimerization and activation of STAT3. […] […]. STAT3 S727, which is targeted by ERK, was phosphorylated at similar levels in both types of cells.

[10] = tested on: mammary tumors of MMTV-Neu (YD) mice; assay: Anti-Ki-67 staining of tumor sections from treated MMTV-Neu(YD) mice; assay type: in vivo
Protocol: Tumor sections were stained by IHC with anti-Ki-67 followed by counterstaining with hematoxylin. Bar=[…].
Tumor sections were stained with anti-Ki-67 Mab, which labels proliferating cells.

b4 = assay: Tyrosine phosphorylation of b4; assay type: cell-based
Protocol: as §1

## COc1cccc2c1C(=O)c1c(O)c3c(c(O)c1C2=O)C[C@@](O)(C(=O)CO)C[C@@H]3O[C@H]1C[C@H](N)[C@H](O)[C@H](C)O1 [Doxorubicin]
[1]; Neu(YD)/b4-WT and Neu(YD)/b4-1355T mice, single dose 10 mg/Kg
  tumor regression: failed to induce tumor regression in either type of mouse

## COc1cc2ncnc(Nc3ccc(F)c(Cl)c3)c2cc1OCCCN1CCOCC1 [Iressa, Gefitinib]
Neu-b4-WT cells [2]
  Matrigel invasion: prevented their invasion
[3]; Neu(YD)/b4-1355T versus Neu(YD)/b4-WT mice
  tumor apoptosis, comparison of genotypes: increased tumor apoptosis in Neu(YD)/b4-1355T mice to a larger extent than it did in Neu(YD)/b4-WT mice
[3]; both genotypes, treated
  overall apoptotic rates: less than 1%
ERK and Akt [4]
  activation of ERK and Akt in vitro: at doses lower than in Neu-b4-WT cells
Activated ErbB2
  apparent IC50, comparison of cell types: equal apparent IC50
[1]; Neu(YD)/b4-1355T tumors
  effect on tumor volume: induced regression
[1]; Neu(YD)/b4-WT tumors
  effect on tumor volume: only reduced the rate of growth
[1]; control group (wild-type b4 mice)
  treated tumors that regress: ~20%
[1]; tumors arising in b4-mutant mice
  treated tumors that regress: About 80%
ErbB2 [5]
  phosphorylation of ErbB2 at its major autophosphorylation site: suppressed
  tyrosine phosphorylation of ErbB2: suppressed
  phosphorylation of the P-loop of ErbB2: inhibit phosphorylation of the P-loop of ErbB2 to a significant extent
[6]
  reassembly of adherens and tight junctions: promoted reassembly of both adherens and tight junctions
ErbB2 [7]
  activation of ErbB2 in tumors: suppressed activation of ErbB2 in both types of tumors
SFKs
  activation of SFKs: did not affect
Neu-b4-WT cells [8]
  organization of adherens and tight junctions: failed to organize both types of junctions, unless they were treated with Iressa
ERK and Akt [9]
  activation of ERK and Akt in tumor lysates: inhibited activation of ERK and Akt in Neu(YD)/b4-1355T tumors by an extent larger than it did in Neu(YD)/b4-WT tumors
c-Jun and STAT3
  activation of c-Jun and STAT3 in tumor lysates: did not suppress but seemed to increase to a small extent
c-Jun
  phosphorylation of c-Jun: inhibited phosphorylation of c-Jun in Neu-b4-WT cells, but at concentrations higher than those required to suppress activation of ERK
STAT3
  phosphorylation of STAT3: inhibited phosphorylation of STAT3 in Neu-b4-WT cells at concentrations higher than those necessary to suppress activation of ERK
[10]; Neu(YD)/b4-1355T mice
  tumor cell proliferation: inhibited tumor cell proliferation
[10]; Neu(YD)/b4-WT mice
  tumor cell proliferation: more modest inhibitory effect
b4
  tyrosine phosphorylation of b4: suppressed

## CC(C)(C)n1nc(-c2ccc(Cl)cc2)c2c(N)ncnc21 [PP2]
ErbB2 [5]
  phosphorylation of ErbB2 at its major autophosphorylation site: exerted the opposite effects
  tyrosine phosphorylation of ErbB2: only partially inhibited
  phosphorylation of the P-loop of ErbB2: inhibit phosphorylation of the P-loop of ErbB2 to a significant extent
SFKs
  activation of SFKs: exerted the opposite effects
b4
  tyrosine phosphorylation of b4: suppressed
